For 17 compounds, inhibition results are on record in patent US10245261B2, “Substituted indol-5-ol derivatives and their therapeutic applications” (NantBioScience, Inc., priority 2013, dated 2019).

Common to all, as to test: KinaseProfiler kinase assay
Holding throughout (type): biochemical

One test concerns the target Abl(h) (Homo sapiens, UniProt P00519).
The target of a further test is KDR(h) (Homo sapiens, UniProt P35968).
The next test has as its target T1, Flt3(h) (Homo sapiens, UniProt P36888).
T1 sequence (P36888 27-993): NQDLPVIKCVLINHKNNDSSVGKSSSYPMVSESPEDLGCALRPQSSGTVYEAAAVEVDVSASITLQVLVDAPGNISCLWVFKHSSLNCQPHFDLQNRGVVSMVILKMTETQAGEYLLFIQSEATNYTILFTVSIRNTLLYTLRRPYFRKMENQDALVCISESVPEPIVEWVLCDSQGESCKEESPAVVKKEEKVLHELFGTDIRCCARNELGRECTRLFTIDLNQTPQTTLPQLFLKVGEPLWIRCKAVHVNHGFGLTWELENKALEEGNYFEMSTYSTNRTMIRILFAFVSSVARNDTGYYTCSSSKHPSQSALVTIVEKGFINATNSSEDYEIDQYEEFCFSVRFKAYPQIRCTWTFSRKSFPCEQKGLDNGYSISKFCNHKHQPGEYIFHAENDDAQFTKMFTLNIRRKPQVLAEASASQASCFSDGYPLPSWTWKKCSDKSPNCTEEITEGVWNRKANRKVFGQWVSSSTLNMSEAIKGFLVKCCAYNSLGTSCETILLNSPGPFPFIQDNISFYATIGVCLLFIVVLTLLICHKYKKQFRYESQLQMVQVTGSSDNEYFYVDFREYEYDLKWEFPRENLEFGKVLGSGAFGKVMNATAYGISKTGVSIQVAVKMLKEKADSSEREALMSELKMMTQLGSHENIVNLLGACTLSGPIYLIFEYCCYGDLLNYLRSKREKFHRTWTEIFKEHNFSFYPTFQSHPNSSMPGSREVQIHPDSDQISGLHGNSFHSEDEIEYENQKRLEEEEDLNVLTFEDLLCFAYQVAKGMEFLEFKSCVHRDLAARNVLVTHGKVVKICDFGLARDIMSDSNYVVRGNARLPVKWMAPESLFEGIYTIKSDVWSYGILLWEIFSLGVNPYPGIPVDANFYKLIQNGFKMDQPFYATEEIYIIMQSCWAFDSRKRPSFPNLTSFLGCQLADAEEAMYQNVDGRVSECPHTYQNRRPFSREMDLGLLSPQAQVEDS
The procedure: (§1) This example tests the inhibitory properties of representative compounds of the invention in c-Src kinase, Aurora-A kinase, Flt3 kinase, Ret kinase and TrkA Kinase assays (see, Daniele Fancelli et al, J. Med. Chem., 2006, 49 (24), pp 7247-7251). The KinaseProfiler™ Service Assay Protocols (Millipore) was used to test the kinase inhibiting activity of novel compounds from this invention. To do this, the buffer composition was as: 20 mM MOPS, 1 mM EDTA, 0.01% Brij-35, 5% Glycerol, 0.1% β-mercaptoethanol, 1 mg/mL BSA. Test compounds were initially dissolved in DMSO at the desired concentration, then serially diluted to the kinase assay buffer. In a final reaction volume of 25 μL, Aurora-A(h) (5-10 mU) is incubated with 8 mM MOPS pH 7.0, 0.2 mM EDTA, 200 μM LRRASLG (Kemptide), 10 mM MgAcetate and [γ^33P-ATP]. The reaction was initiated by the addition of the MgATP mix. After incubation for 40 minute at room temperature, the reaction was stopped by addition of 5 μL of a 3% phosphoric acid solution. 10 μL of the reaction was then spotted onto a P30 filtermat and washed three times for 5 minutes in 50 mM phosphoric acid and once in methanol prior to drying and scintillation counting. Wells containing substrate but no kinase and wells containing a phosphopeptide control were used to set 0% and 100% phosphorylation value, respectively.
(§2) The Kinase Hotspot℠ kinase assay was also used to test the compounds for IC50 or % inhibitions (Reaction Biology Corp.). Inhibitory IC50 values were determined by titration of compound at the optimal kinase concentration (Kinase EC50).

Another test has as its target cSRC(h) (Homo sapiens, UniProt P12931). The procedure: as §1, §2
A further test has as its target T2, Aurora-A(h) (Homo sapiens, UniProt O14965).
T2 sequence (O14965 1-403): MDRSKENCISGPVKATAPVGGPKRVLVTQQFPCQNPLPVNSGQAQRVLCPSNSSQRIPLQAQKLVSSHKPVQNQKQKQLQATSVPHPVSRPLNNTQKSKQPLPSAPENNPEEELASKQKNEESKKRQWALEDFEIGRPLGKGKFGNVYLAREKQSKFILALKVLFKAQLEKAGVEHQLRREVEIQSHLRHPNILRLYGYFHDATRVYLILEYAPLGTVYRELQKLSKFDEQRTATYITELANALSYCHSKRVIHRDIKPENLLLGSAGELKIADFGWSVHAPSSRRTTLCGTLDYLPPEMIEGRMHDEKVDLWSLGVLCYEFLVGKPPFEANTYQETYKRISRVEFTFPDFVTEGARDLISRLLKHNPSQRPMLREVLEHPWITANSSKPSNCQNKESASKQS
The note with it: read-out: % Inhibition @1 μM Auroro-A. How it is done: as §1, §2

The target of another test is Ret(h) (Homo sapiens, UniProt P07949). The procedure: as §1, §2

By inhibition is commonly meant the change of the read-out against control, counted positive when it falls.

Sequence of Ret(h) (P07949 29-1114): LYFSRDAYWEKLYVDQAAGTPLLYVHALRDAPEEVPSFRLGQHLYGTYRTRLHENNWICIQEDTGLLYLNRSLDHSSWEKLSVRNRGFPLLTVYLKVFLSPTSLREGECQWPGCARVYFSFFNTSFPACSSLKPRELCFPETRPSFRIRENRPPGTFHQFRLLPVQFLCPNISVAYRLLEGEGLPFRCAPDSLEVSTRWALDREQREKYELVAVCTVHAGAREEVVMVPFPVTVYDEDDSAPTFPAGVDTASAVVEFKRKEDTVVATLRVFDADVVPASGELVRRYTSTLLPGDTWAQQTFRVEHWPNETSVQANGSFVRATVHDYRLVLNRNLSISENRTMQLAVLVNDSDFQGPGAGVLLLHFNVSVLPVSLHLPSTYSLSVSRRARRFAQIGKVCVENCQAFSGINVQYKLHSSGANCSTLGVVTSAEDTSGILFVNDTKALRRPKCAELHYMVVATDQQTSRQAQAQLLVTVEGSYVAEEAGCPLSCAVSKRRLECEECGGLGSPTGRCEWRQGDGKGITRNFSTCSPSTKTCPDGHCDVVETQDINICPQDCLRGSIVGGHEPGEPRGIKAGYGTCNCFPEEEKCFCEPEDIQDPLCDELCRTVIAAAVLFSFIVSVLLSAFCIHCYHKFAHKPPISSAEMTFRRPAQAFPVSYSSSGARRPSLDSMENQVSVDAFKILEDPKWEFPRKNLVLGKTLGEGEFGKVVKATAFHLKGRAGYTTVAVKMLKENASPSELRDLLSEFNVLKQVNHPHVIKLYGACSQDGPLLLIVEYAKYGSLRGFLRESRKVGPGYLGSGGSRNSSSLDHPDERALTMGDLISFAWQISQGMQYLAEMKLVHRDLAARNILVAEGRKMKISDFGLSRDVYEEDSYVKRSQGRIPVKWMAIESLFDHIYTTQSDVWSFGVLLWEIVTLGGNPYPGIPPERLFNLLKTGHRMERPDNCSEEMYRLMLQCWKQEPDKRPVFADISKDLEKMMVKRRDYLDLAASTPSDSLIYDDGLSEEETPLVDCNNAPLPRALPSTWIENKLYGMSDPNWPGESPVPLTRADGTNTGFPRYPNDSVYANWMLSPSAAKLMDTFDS
Sequence of cSRC(h) (P12931 whole entry): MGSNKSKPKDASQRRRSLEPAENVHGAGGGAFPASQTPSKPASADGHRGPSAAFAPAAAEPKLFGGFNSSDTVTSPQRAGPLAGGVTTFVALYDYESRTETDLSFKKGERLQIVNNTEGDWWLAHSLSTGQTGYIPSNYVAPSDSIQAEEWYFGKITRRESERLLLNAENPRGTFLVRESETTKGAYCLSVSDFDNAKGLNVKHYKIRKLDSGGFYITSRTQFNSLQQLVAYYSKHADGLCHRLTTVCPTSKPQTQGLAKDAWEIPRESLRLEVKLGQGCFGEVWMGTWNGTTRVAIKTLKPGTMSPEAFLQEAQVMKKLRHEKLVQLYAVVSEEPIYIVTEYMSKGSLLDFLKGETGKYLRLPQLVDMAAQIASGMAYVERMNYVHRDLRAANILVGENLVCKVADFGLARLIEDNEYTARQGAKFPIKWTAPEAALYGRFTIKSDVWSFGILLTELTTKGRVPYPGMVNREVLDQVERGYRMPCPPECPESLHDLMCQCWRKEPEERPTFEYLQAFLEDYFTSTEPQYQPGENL
Sequence of Abl(h) (P00519 whole entry): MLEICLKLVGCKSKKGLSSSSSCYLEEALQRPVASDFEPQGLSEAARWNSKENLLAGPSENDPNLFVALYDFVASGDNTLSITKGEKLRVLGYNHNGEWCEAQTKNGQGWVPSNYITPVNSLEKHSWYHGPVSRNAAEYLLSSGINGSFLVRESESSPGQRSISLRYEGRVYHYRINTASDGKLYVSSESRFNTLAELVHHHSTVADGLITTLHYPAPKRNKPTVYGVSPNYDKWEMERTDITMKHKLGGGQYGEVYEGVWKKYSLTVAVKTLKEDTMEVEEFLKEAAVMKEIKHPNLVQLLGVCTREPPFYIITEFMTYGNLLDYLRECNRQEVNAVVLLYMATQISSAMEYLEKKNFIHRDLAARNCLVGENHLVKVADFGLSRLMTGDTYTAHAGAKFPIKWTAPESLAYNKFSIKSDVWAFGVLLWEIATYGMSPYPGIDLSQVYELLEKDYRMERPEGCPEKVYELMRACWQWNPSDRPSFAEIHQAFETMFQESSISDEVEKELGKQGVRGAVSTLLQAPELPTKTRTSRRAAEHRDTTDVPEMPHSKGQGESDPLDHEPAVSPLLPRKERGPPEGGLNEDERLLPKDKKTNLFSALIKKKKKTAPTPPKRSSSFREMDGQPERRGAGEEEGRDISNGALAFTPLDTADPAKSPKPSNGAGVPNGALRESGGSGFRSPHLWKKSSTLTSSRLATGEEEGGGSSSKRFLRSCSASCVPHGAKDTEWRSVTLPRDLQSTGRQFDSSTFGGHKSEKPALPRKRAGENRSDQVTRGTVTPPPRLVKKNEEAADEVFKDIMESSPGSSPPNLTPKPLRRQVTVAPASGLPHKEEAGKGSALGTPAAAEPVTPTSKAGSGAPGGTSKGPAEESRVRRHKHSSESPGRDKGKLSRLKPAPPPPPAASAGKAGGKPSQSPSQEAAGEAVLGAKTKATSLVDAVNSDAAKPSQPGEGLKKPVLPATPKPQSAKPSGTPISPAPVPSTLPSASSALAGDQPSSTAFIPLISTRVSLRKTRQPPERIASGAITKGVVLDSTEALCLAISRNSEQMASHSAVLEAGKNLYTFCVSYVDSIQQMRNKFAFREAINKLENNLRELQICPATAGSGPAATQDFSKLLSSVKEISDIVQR
Sequence of KDR(h) (P35968 20-1356): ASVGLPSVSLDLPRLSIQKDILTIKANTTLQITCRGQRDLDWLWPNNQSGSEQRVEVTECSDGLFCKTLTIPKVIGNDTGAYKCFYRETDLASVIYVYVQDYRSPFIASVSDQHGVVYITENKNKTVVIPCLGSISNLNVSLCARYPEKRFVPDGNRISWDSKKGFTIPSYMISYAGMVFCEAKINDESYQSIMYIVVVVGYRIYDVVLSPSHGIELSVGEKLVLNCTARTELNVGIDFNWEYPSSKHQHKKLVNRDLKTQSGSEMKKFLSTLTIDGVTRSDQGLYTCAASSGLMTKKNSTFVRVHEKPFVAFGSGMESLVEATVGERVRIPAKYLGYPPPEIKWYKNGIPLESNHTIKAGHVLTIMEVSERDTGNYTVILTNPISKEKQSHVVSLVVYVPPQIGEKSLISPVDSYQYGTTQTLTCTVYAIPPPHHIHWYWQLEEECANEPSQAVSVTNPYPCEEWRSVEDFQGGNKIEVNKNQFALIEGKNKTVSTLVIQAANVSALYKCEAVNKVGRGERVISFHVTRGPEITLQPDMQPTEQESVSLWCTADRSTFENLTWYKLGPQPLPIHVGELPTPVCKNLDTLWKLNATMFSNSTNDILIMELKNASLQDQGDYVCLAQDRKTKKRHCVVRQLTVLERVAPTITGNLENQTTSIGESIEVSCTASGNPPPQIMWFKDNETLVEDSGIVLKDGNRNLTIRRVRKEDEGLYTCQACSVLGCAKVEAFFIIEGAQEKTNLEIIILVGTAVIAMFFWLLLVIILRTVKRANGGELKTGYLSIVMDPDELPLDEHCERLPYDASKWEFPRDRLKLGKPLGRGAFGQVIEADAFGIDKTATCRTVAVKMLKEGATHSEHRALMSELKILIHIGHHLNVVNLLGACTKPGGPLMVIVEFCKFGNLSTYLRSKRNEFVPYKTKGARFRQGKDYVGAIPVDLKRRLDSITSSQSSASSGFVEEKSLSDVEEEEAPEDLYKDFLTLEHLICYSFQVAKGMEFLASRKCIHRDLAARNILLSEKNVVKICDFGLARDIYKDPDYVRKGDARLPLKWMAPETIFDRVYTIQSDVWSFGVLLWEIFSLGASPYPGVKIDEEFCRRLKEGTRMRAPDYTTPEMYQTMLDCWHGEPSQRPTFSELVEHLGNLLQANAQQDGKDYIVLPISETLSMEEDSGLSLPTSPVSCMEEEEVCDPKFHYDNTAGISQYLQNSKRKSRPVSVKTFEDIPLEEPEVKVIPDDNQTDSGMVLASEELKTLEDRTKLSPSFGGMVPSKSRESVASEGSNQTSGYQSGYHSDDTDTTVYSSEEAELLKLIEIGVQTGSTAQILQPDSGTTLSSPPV

For the compound `Cc1cc2c(F)c(Oc3nc(Nc4cc(C5CC5)[nH]n4)cc(N4CCN(C)CC4)n3)ccc2n1C` [Compound 122], the inhibition at 1 µM came out at 109% against Abl(h); 91% against KDR(h); 102% against Flt3(h); 104% on cSRC(h); 101% on Aurora-A(h); 101% against Ret(h).
For `C/C=C/c1cc(Nc2cc(N3CCN(CCF)CC3)nc(Oc3ccc4[nH]c(C)cc4c3F)n2)n[nH]1` [Compound 74], the inhibition at 1 µM against Abl(h) is 111%; against KDR(h), 96%; against Flt3(h) it was 100%; against cSRC(h) it was 100%; at Aurora-A(h) it was 99%; on Ret(h), 102%.
Regarding `C/C=C/c1cc(Nc2cc(N3CCN(C)CC3)nc(Oc3ccc4[nH]c(C)cc4c3Cl)n2)n[nH]1` [Compound 112], the inhibition at 1 µM at Abl(h) was determined as 113%; on KDR(h) it was 91%; at Flt3(h), 102%; at cSRC(h), 104%; at Aurora-A(h), 100%; against Ret(h), 102%.
For `Cc1cc2c(F)c(Oc3nc(Nc4cc(C5CC5)[nH]n4)cc(N4C[C@@H](C)N[C@@H](C)C4)n3)ccc2[nH]1` [Compound 20], the inhibition at 1 µM turned out to be 107% against Abl(h); 93% at KDR(h); 100% against Flt3(h); 99% at cSRC(h); 99% on Aurora-A(h); 100% on Ret(h).
Consider `C/C=C/c1cc(Nc2cc(N3CCOCC3)nc(Oc3ccc4[nH]c(C)cc4c3F)n2)n[nH]1` [Compound 67], for which the inhibition at 1 µM against Abl(h) amounted to 112%; on KDR(h), 91%; on Flt3(h), 100%; on cSRC(h), 99%; on Aurora-A(h), 99%; on Ret(h), 100%.
As to `Cc1cc2c(F)c(Oc3nc(Nc4cc(C5CC5)[nH]n4)cc(N4CCOC(CN)C4)n3)ccc2[nH]1` (stereo not drawn) [Compound 39], the inhibition at 1 µM against Abl(h) was determined as 110%; at KDR(h), 95%; against Flt3(h), 98%; against cSRC(h), 97%; at Aurora-A(h) it was 98%; against Ret(h), 101%.
As to `Cc1cc2c(F)c(Oc3nc(Nc4cc(C5CC5)[nH]n4)cc(N4CCN(c5ccncc5)CC4)n3)ccc2[nH]1` [Compound 27], the inhibition at 1 µM came to 108% at Abl(h); 92% at KDR(h); 100% at Flt3(h); 99% against cSRC(h); 101% on Aurora-A(h); 101% against Ret(h).
For `C/C=C/c1cc(Nc2cc(N3CCC(N(CC)CC)C3)nc(Oc3ccc4[nH]c(C)cc4c3F)n2)n[nH]1` (stereo not drawn) [Compound 62], the inhibition at 1 µM on Abl(h) came out at 111%; at KDR(h), 96%; against Flt3(h), 99%; on cSRC(h), 101%; on Aurora-A(h) it was 102%; at Ret(h), 102%.
On to `Cc1cc2c(F)c(Oc3nc(Nc4cc(C5CC5)[nH]n4)cc(N4CCOCC4)n3)ccc2[nH]1` [Compound 13], for which the inhibition at 1 µM was found to be 112% on Abl(h); 96% on KDR(h); 101% against Flt3(h); 100% against cSRC(h); 100% on Aurora-A(h); 100% on Ret(h).
As to `C/C=C/c1cc(Nc2cc(N3CCN(C)CC3)nc(Oc3ccc4c(cc(C)n4C)c3F)n2)n[nH]1` [Compound 120], the inhibition at 1 µM against Abl(h) was 115%; at KDR(h), 91%; on Flt3(h) it was 101%; against cSRC(h), 104%; at Aurora-A(h), 101%; against Ret(h), 101%.
For `C/C=C/c1cc(Nc2cc(N3CCN(C(C)=O)CC3)nc(Oc3ccc4[nH]c(C)cc4c3F)n2)n[nH]1` [Compound 56], the inhibition at 1 µM against Abl(h) turned out to be 111%; against KDR(h), 96%; on Flt3(h), 99%; on cSRC(h) it was 100%; on Aurora-A(h) it was 99%; on Ret(h), 101%.
On to `CCN1CCN(c2cc(Nc3cc(C4CC4)[nH]n3)nc(Oc3ccc4[nH]c(C)cc4c3F)n2)CC1` [Compound 31], for which the inhibition at 1 µM is 115% against Abl(h); 91% against KDR(h); 101% against Flt3(h); 104% against cSRC(h); 101% at Aurora-A(h); 102% at Ret(h).
In the case of `Cc1cc2c(F)c(Oc3nc(Nc4cc(C5CC5)[nH]n4)cc(N4CCN(CCF)CC4)n3)ccc2[nH]1` [Compound 45], the inhibition at 1 µM against Abl(h) worked out at 107%; against KDR(h) it was 95%; against Flt3(h), 101%; against cSRC(h), 107%; at Aurora-A(h), 99%; at Ret(h), 102%.
For the compound `Cc1cc2c(F)c(Oc3nc(Nc4cc(C5CC5)[nH]n4)cc(N4CC(O)C4)n3)ccc2[nH]1` [Compound 15], the inhibition at 1 µM on Abl(h) was determined as 108%; on KDR(h), 91%; against Flt3(h) it was 100%; against cSRC(h), 99%; at Aurora-A(h) it was 101%; at Ret(h), 101%.
Consider `Cc1cc2c(F)c(Oc3nc(Nc4cc(C5CC5)[nH]n4)cc(N4CCOC(CN(C)C)C4)n3)ccc2[nH]1` (stereo not drawn) [Compound 30], for which the inhibition at 1 µM worked out at 110% on Abl(h); 94% against KDR(h); 100% against Flt3(h); 99% on cSRC(h); 100% on Aurora-A(h); 101% against Ret(h).
As for `Cc1cc(Nc2cc(N3CCNCC3)nc(Oc3cc(F)c4[nH]c(C)cc4c3F)n2)n[nH]1` [Compound 106], the inhibition at 1 µM against Abl(h) came to 109%; against KDR(h), 95%; at Flt3(h), 99%; at cSRC(h), 98%; on Aurora-A(h), 97%; against Ret(h), 98%.
As to `Cc1cc2c(F)c(Oc3nc(Nc4cc(C5CC5)[nH]n4)cc(N4CCN(c5cccnc5)CC4)n3)ccc2[nH]1` [Compound 26], the inhibition at 1 µM against Abl(h) amounted to 109%; against KDR(h) it was 93%; against Flt3(h) it was 100%; on cSRC(h), 100%; at Aurora-A(h), 101%; on Ret(h) it was 101%.
